Test results as given in US8937050B2, “Methods and compositions for treatment of autism” (The Johns Hopkins University, priority 2011, dated 2015).

What was measured:
autism = test: Placebo-controlled study of HU in male adolescents and adults with autism; assay type: in vivo, human; conditions: HU at low doses
Experimental: Administration of hydroxyurea (HU) in adolescents and adults with autism is evaluated in a study designed to ensure safety and obtain efficacy data. HU is chosen based on its effects on the stress proteome in vitro and based on clinical observations of improvements (e.g., social responsiveness) in persons with autism during fever. (Curran et al., 2007).
The hybrid design of the study incorporates double masking, placebo control, and randomization to enhance the robustness of early outcome data. […]
Forty-five male adolescents (13-18 years) and adults (19-30 years) are randomly assigned to receive either HU (n=30, at 2 month escalating intervals: 10, 15 and 20 mg/kg/day) or placebo (n=15). Quantitative autism traits are assessed using the ADI-R, Social Responsiveness Scale (child and adult forms), Clinical Global Impression Scale (CGI) and Autism Behavior Checklist (ABC). […]
The effect of HU in autism is evaluated to ensure safety and efficacy (Piantadosi et al., 2005). […]
Male adolescent (n=15, ages 13-18 years) and adults (n=30, ages 19-30) are randomly assigned to receive either HU (at 2 month escalating intervals: […]) or placebo. Quantitative autism traits are assessed using the ADI-R, Social Responsiveness Scale (child and adult forms) (Constantino et al., 2005), Clinical Global Impressions Scale (CGI), and Autism Behavior Checklist (ABC). […]

K562 cells = test: Flow cytometric analysis of peroxisome proliferation (PEX14); assay type: cell-based, human; conditions: eight to ten days, FIG. 1E
Experimental: Fibroblasts (70-95% confluent) were treated with 5 mM 4PBA (1 mM for JNK inhibition studies), 600 μM HU, 200 nM TSA, or 5 μM SFN unless otherwise specified.
K562 cells were incubated with 50 nM Mitotracker Green FM, 300 nM Mitotracker Deep Red 633 (Invitrogen), or PBS as a negative control for 15 min at 37° C. or stained with anti-Pex14 using Caltag Fix and Perm reagents (Invitrogen) following the manufacturer's instructions. Stained cells were suspended in 0.5 mL of 1% paraformaldehyde/PBS and subjected to flow cytometric analysis (FACScan machine, Becton Dickinson, Franklin Lakes, N.J.).
K562 cells were treated with SB and HU for four to ten days. […] (n≧3 unless otherwise noted).
To determine whether the induction of mitochondrial biogenesis by SB or HU treatment was necessary for the induction of HbF-producing cell production, K562 cells were treated with SB or HU in the presence or absence of AA. […] After two to four days of drug treatment with or without AA, mitochondrial mass was measured using Mitotracker, a mitochondrial stain. Fold change (drug treated/control) is shown. […] After four days of drug treatment with or without AA, cells were stained with DAF. […] After eight to ten days of drug treatment, peroxisome proliferation was measured using an antibody against the peroxisomal membrane protein, PEX14 and a FITC-labeled secondary antibody. […]

APG8 (LC3) = conditions: normal human fibroblasts, 4 hrs.-24 hrs.; FIG. 5B
Experimental: Cell lysates were collected in mammalian protein extraction reagent (m-PER; Thermo Scientific, Rockford, Ill.) plus 1×protease inhibitor (Sigma-Aldrich) and 1×Halt phosphatase inhibitor (Thermo Scientific). Denatured SDS-PAGE and immunoblot analyses were performed using the following antibodies: phosphorylated JNK and β-actin from Santa Cruz Biotechnology, HSP70, HSP90, BIP, phosphorylated eIF2α, and XBP1 from Cell Signaling, APG8 (Abgent, San Diego, Calif.), and SOD2 (Stressgen, Ann Arbor, Mich.). Quantitation was performed using a Fuji Intelligent Dark box II, FUJI LAS-1000 Lite software and Image Gauge v4.22 software (Tokyo, Japan).
Actin (43 kDa) was used as a loading control. UT denotes untreated cells.

[1] = Zhao et al., 2005; Clarke et al., 2011; cited from earlier work

Row | Compound | clinical function in adolescents and adults with well characterized autism (autism) | peroxisomal proliferation (K562 cells) | proportion of LC3-II to LC3-I (APG8 (LC3)) | blood brain barrier crossing [1]
1 | NC(=O)NO [HU, hydroxyurea] | improved clinical function | significantly increased |  | 
2 | C[S@@+]([O-])CCCCN=C=S [SFN, 1-isothiocyanato-4R-(methylsulfinyl)butane] |  |  | significantly increased | crosses the blood brain barrier
